Reference: patent publication US8507464B2, “Phosphoramidate alkylator prodrugs” (Threshold Pharmaceuticals, Inc., priority 2005, dated 2013)

How the values were obtained:
[1] = test system: NCI-H460 cells; assay: Antiproliferation assay (Alamar Blue), anoxia vs air
[2] = test system: NCI-H460 cells; assay: Antiproliferation assay - oxygen dependence; format: cell-based, human
Excerpt: . […] The calculated IC50 values (μM) are tabulated in Table Y1 (H460 cells) or Table Y2 (HT29 cells) below.

[3] = Homo sapiens, NCI-H460, 2 h, read-out: IC50 H460 Air, air, 2 h exposure
[4] = Homo sapiens, NCI-H460, 2 h, read-out: IC50 H460 Anoxia, anoxia, 2 h exposure
[5] = Homo sapiens, NCI-H460, read-out: IC50 in H460 cells, 0.6% O2
[6] = Homo sapiens, NCI-H460, read-out: IC50 in H460 cells, Air
[7] = Homo sapiens, NCI-H460, read-out: IC50 in H460 cells, N2
[8] = Homo sapiens, NCI-H460; read-out: IC50 in H460 cells, Air
[9] = read-out: IC50 H460 Air, air, 2 h exposure
[10] = read-out: IC50 H460 Anoxia, anoxia, 2 h exposure

| SMILES | IC50 [1, 3] [µM] | IC50 [1, 4] [µM] | other results |
| --- | --- | --- | --- |
| CC(OP(=O)(NCCBr)NCCBr)c1ccc([N+](=O)[O-])o1 (stereo not drawn) [Compound 105] | 1 | < 0.1 | – |
| CCN(CCOP(=O)(NCCBr)NCCBr)C(=O)OCc1cnc([N+](=O)[O-])n1C [Compound 62] | 45 | 2 | IC50 [2, 5]: 30 µM; IC50 [2, 6]: 45 µM; IC50 [2, 7]: 2 µM |
| CC(C)[C@@H](CCl)NP(=O)(N[C@H](CCl)C(C)C)OCc1ccc([N+](=O)[O-])s1 [Compound 47] | > 100 | 4 | IC50 [2, 5]: 60 µM; IC50 [2, 8]: 100 µM |
| CC(C)[C@H](CCl)NP(=O)(N[C@@H](CCl)C(C)C)OCc1cnc([N+](=O)[O-])n1C [Compound 45] | > 100 | 6 | – |
| CC(C)[C@@H](CCl)NP(=O)(N[C@H](CCl)C(C)C)OCc1cnc([N+](=O)[O-])n1C [Compound 48] | > 100 | – | – |
| O=[N+]([O-])c1ccc(COP(=O)(NCCOCCOCCNP(=O)(OCc2ccc([N+](=O)[O-])o2)N(CCCl)CCCl)N(CCCl)CCCl)o1 (stereo not drawn) [Compound 140] | 65 | 5 | – |
| O=[N+]([O-])c1ccc(C#Cc2ccc(COP(=O)(NCCBr)NCCBr)cc2)s1 [Compound 58] | 10 | 5 | – |
| CC(C)[C@H](CCl)NP(=O)(N[C@@H](CCl)C(C)C)OCc1ccc(OCc2cnc([N+](=O)[O-])n2C)c(F)c1 [Compound 49] | – | – | IC50 ([1]; read-out: IC50 H460 Air): > 100 µM |
| Cn1c(COC(=O)NCCCOP(=O)(NCCBr)NCCBr)cnc1[N+](=O)[O-] [Compound 68] | > 100 | ≥ 100 | – |
| O=[N+]([O-])c1ccsc1COP(=O)(NCCBr)NCCBr [Compound 86] | – | – | IC50 [1, 9]: 3 µM; IC50 [1, 10]: 1.4 µM |
| C[C@@H](CCl)NP(=O)(N[C@@H](C)CCl)OCc1ccc([N+](=O)[O-])s1 [Compound 41] | – | – | IC50 ([1]; read-out: IC50 H460 Air): 7 µM |
| O=[N+]([O-])c1nccn1CCCOP(=O)(NCCBr)NCCBr [Compound 80] | > 100 | > 100 | – |
| Cn1c(CSCCOP(=O)(NCCBr)NCCBr)cnc1[N+](=O)[O-] [Compound 91] | > 100 | – | – |
| CC(C)(C#Cc1ccc([N+](=O)[O-])cc1)OP(N)(=O)N(CCCl)CCCl (stereo not drawn) [Compound 117] | 70 | 8 | – |
| CC(OP(=O)(NCCCl)NCCCl)c1ccc([N+](=O)[O-])o1 (stereo not drawn) [Compound 104] | 12 | 0.4 | – |
| O=[N+]([O-])c1ccc(COP(=O)(NCCCCCCCCNP(=O)(OCc2ccc([N+](=O)[O-])o2)N(CCCl)CCCl)N(CCCl)CCCl)o1 (stereo not drawn) [Compound 139] | 100 | 16 | – |
| CC(OP(=O)(NCCBr)NCCBr)c1ccc(OCc2cnc([N+](=O)[O-])n2C)c([N+](=O)[O-])c1 (stereo not drawn) [Compound 61] | – | – | IC50 ([2]; Air; read-out: IC50 in H460 cells, Air): 4 µM; IC50 ([2]; N2; read-out: IC50 in H460 cells, N2): 0.3 µM; IC50 ([2]; read-out: IC50 in H460 cells, 0.6% O2): 4 µM; IC50 [1, 9]: 4 µM; IC50 [1, 10]: 0.3 µM |
| Cn1c(COC(=O)NCCCCOP(=O)(NCCBr)NCCBr)cnc1[N+](=O)[O-] [Compound 69] | > 100 | 71 | – |
| Cn1c(COC(=O)NC(C)(C)COP2(=O)N(CCBr)CCN2CCBr)cnc1[N+](=O)[O-] [Compound 112] | > 100 | 70 | – |
| COc1cc(COP(=O)(N[C@H](C)CCl)N[C@H](C)CCl)ccc1OCc1cnc([N+](=O)[O-])n1C [Compound 54] | 60 | 1 | IC50 [2, 5]: 30 µM; IC50 [2, 8]: 60 µM; IC50 ([2]; Homo sapiens, NCI-H460; read-out: IC50 in H460 cells, N2): 1 µM |

| SMILES | IC50 [1, 3] [µM] | IC50 [1, 4] [µM] | other results |
| --- | --- | --- | --- |
| CC(OP(N)(=O)N(CCCl)CCCl)c1cnc([N+](=O)[O-])n1C (stereo not drawn) [Compound 114] | 80 | 1 | IC50 [2, 5]: 5 µM; IC50 [2, 6]: 80 µM; IC50 [2, 7]: 1 µM |
| CN(CCCl)P(=O)(OCc1ccc(OCc2cnc([N+](=O)[O-])n2C)c(F)c1)N(C)CCCl [Compound 150] | 21 | – | – |
| Cn1c([N+](=O)[O-])nc(Br)c1-c1ccc(COP(=O)(NCCBr)NCCBr)cc1 [Compound 65] | – | – | IC50 [1, 9]: 75 µM; IC50 [1, 10]: 25 µM |
| CC(OP(=O)(NCCCl)NCCCl)c1ccc([N+](=O)[O-])s1 (stereo not drawn) [Compound 89] | 3.7 | 0.33 | – |
| O=[N+]([O-])c1ccc(COP(=O)(NCCOS(=O)(=O)c2ccc(Cl)cc2)NCCOS(=O)(=O)c2ccc(Cl)cc2)o1 [Compound 107] | – | – | IC50 ([1]; Homo sapiens, NCI-H460, 2 h, read-out: IC50 H460 Air): 2.8 µM; IC50 ([1]; Homo sapiens, NCI-H460, 2 h, read-out: IC50 H460 Anoxia): 0.06 µM |
| COc1cc(C(C)OP(=O)(NCCBr)NCCBr)ccc1OCc1cnc([N+](=O)[O-])n1C (stereo not drawn) [Compound 60] | 15 | 15 | – |
| CC(OP(=O)(N[C@H](C)CCl)N[C@H](C)CCl)c1ccc([N+](=O)[O-])s1 (stereo partly drawn) [Compound 93] | – | – | IC50 [1, 9]: 3.8 µM; IC50 [1, 10]: 0.1 µM |
| Cn1c(COP(=O)(N2CC2)N2CC2)cnc1[N+](=O)[O-] [Compound 28] | 20 | 0.15 | – |
| CC(OP(=O)(NCCBr)NCCBr)c1ccc(OCc2ccc([N+](=O)[O-])o2)c([N+](=O)[O-])c1 (stereo not drawn) [Compound 71] | 0.1 | 0.1 | – |
| Cn1c([N+](=O)[O-])cnc1COc1ccc(COP(N)(=O)N(CCCl)CCCl)cc1 (stereo not drawn) [Compound 142] | > 100 | > 40 | – |
| COc1cc2c(=O)n(CCN(C)P(=O)(OCc3ccc([N+](=O)[O-])o3)N(CCCl)CCCl)c3c4cc5c(cc4ncc3c2cc1OC)OCO5 (stereo not drawn) [Compound 154] | 2 | 0.9 | – |
| CC(C)(C#Cc1ccc([N+](=O)[O-])s1)COP(N)(=O)N(CCCl)CCCl (stereo not drawn) [Compound 115] | 5 | 0.5 | – |
| C[C@H](CCl)NP(=O)(N[C@H](C)CCl)OCc1ccc(-c2ccc([N+](=O)[O-])o2)cc1 [Compound 57] | – | – | IC50 ([1]; read-out: IC50 H460 Anoxia): 14 µM |
| O=[N+]([O-])c1ccc(COP(=O)(NCCBr)NCCBr)c([N+](=O)[O-])c1 [Compound 75] | 26 | 9 | – |
| O=[N+]([O-])c1sc(COP(=O)(NCCCl)NCCCl)cc1Br [Compound 95] | 2.7 | – | – |
| CC(=O)NP(=O)(OCc1cnc([N+](=O)[O-])n1C)N(CCCl)CCCl (stereo not drawn) [Compound 149] | > 100 | 50 | – |
| Cn1c(COP(=O)(OCc2cnc([N+](=O)[O-])n2C)N(CCCl)CCCl)cnc1[N+](=O)[O-] [Compound 145] | > 100 | > 100 | – |
| Cn1c(CSCCCCOP(=O)(NCCBr)NCCBr)cnc1[N+](=O)[O-] [Compound 92] | > 100 | > 100 | – |
| O=[N+]([O-])c1ccc(COP(=O)(NCCBr)NCCBr)cc1F [Compound 79] | 3.5 | 3.5 | – |
| O=[N+]([O-])c1ccc(COP(=O)(NCCBr)NCCBr)cc1 [Compound 74] | > 100 | > 100 | – |

| SMILES | IC50 [1, 3] [µM] | IC50 [1, 4] [µM] | other results |
| --- | --- | --- | --- |
| CCCn1c(COP(=O)(NCCCl)NCCCl)cnc1[N+](=O)[O-] [Compound 83] | > 100 | 0.3 | – |
| N#Cc1cc(COP(=O)(NCCCl)NCCCl)sc1[N+](=O)[O-] [Compound 96] | – | – | IC50 [1, 9]: 0.1 µM; IC50 [1, 10]: 0.1 µM |
| O=[N+]([O-])c1ccc(COP(=O)(N(CCCl)CCCl)N(CCCl)CCCl)o1 [Compound 143] | 3.5 | 4.5 | – |
| O=[N+]([O-])c1ncc(COP(=O)(NCCBr)NCCBr)n1C1CCCCC1 [Compound 77] | 5.5 | 1.6 | – |
| O=[N+]([O-])c1ncc(COP(=O)(NCCBr)NCCBr)n1CC(F)(F)F [Compound 90] | 3.4 | 0.01 | – |
| O=[N+]([O-])c1ncc(COP(=O)(NCCCl)NCCCl)n1C1CCCCC1 [Compound 76] | > 100 | 9 | – |
| C[C@H](CCl)NP(=O)(N[C@H](C)CCl)OCc1ccc([N+](=O)[O-])s1 [Compound 39] | – | – | IC50 ([1]; read-out: IC50 H460 Air): 5 µM; IC50 ([1]; read-out: IC50 H460 Anoxia): 0.2 µM |
| O=[N+]([O-])c1ccc(-c2ccc(OP3(=O)N(CCBr)CCN3CCBr)cc2)s1 [Compound 111] | 100 | 50 | – |
| C[C@@H](CCl)NP(=O)(N[C@@H](C)CCl)OCc1ccc([N+](=O)[O-])o1 [Compound 42] | 9 | 0.5 | – |
| CC(OP(=O)(NCCCl)NCCCl)c1ncc([N+](=O)[O-])n1C (stereo not drawn) [Compound 87] | > 100 | 22 | – |
| Cc1cc(C(C)OP(N)(=O)N(CCCl)CCCl)sc1[N+](=O)[O-] (stereo not drawn) [Compound 116] | 15 | 0.5 | – |
| CC(OP(=O)(NCCBr)NCCBr)c1ccc(-c2ccc([N+](=O)[O-])s2)cc1 (stereo not drawn) [Compound 59] | 6 | 2 | – |
| Cn1c([N+](=O)[O-])cnc1/C=C/COP1(=O)N(CCCl)CCN1CCCl [Compound 147] | > 100 | > 100 | – |
| Cn1c(COc2ccc(COP3(=O)N(CCCl)CCCN3CCCl)cc2F)cnc1[N+](=O)[O-] [Compound 33] | 46 | 8 | – |
| CC(C)[C@H](CCl)NP(=O)(N[C@@H](CCl)C(C)C)OCc1ccc([N+](=O)[O-])o1 [Compound 43] | 60 | 2 | – |
| O=[N+]([O-])c1sc(COP(=O)(NCCBr)NCCBr)cc1Br [Compound 94] | 2 | 0.3 | – |
| C[C@H](CBr)NP(=O)(N[C@H](C)CBr)OCc1ccc([N+](=O)[O-])o1 [Compound 72] | 12 | 0.5 | – |
| Cn1c(COP(=O)(NCCOS(C)(=O)=O)NCCOS(C)(=O)=O)cnc1[N+](=O)[O-] [Compound 67] | > 100 | 48 | – |
